Data from PubChem BioAssay AID1053164 (Broad Institute, 2014).
Values joined by “and” are separate entries in the source; they are usually repeats but may differ in a detail not shown here. Equal values may be shown once. Active and inactive are the calls of the source. No rule for the calls is given here.

Biological target: Dihydrolipoyl dehydrogenase (Mycobacterium tuberculosis (strain ATCC 25618 / H37Rv)) (UniProt P9WHH9)
Test: Mycobacterium tuberculosis lipoamide dehydrogenase inhibition, DTNB colorimetric coupled assay, dose response confirmation, dry powder (AID 1053164)
Settings: Purified M. tb Lpd, DTNB colorimetric plate reader

Structure (SMILES)	IC50
CO[C@H]1CC[C@H]2CC(=O)N(C)CCN(C)C(=O)c3cccc(C#N)c3OC[C@@H]1O2	> 100 µM (inactive)
CO[C@H]1CC[C@H]2CCN(C)C(=O)CN(C)C(=O)c3cccc(C#N)c3OC[C@@H]1O2	> 100 µM (inactive)
CO[C@H]1CC[C@H]2CCN(C)C(=O)[C@@H](C)N(C)C(=O)c3cccc(C#N)c3OC[C@@H]1O2	6 µM and > 100 µM (inactive)
CO[C@H]1CC[C@H]2CCN(C)C(=O)CCN(C)C(=O)c3cccc(C#N)c3OC[C@@H]1O2	> 100 µM (inactive)
CO[C@H]1CC[C@H]2CCN(C)C(=O)[C@@H](C)N(C)C(=O)c3cccnc3OC[C@@H]1O2	> 100 µM (inactive)
CO[C@H]1CC[C@H]2CCN(C)C(=O)[C@@H](C)N(C)C(=O)c3cc(Cl)cnc3OC[C@@H]1O2	25 µM
CCCC[C@@H]1C(=O)N(C)CC[C@@H]2CC[C@H](OC)[C@H](COc3c(C#N)cccc3C(=O)N1C)O2	> 100 µM (inactive)
CO[C@H]1CC[C@H]2CCN(C)C(=O)CCCN(C)C(=O)c3cc(Cl)cnc3OC[C@@H]1O2	> 100 µM (inactive)
CO[C@H]1CC[C@H]2CCN(C)C(=O)[C@H]3CCCN3C(=O)c3cccc(C#N)c3OC[C@@H]1O2	> 100 µM (inactive)
CO[C@H]1CC[C@H]2CCN(C)C(=O)[C@@H](C(C)C)N(C)C(=O)c3cccc(C#N)c3OC[C@@H]1O2	> 100 µM (inactive)
CO[C@H]1CC[C@H]2CCN(C)C(=O)CCCN(C)C(=O)c3cccnc3OC[C@@H]1O2	> 100 µM (inactive)
CO[C@H]1CC[C@H]2CCN(C)C(=O)[C@@H](C)N(C)C(=O)c3c(C(F)(F)F)ccnc3OC[C@@H]1O2	> 100 µM (inactive)
CO[C@H]1CC[C@H]2CCN(C)C(=O)[C@@H](Cc3ccccc3)N(C)C(=O)c3cccc(C#N)c3OC[C@@H]1O2	> 100 µM (inactive)
CO[C@H]1CC[C@H]2CCN(C)C(=O)[C@@H](C)N(C)C(=O)c3ccc(F)nc3OC[C@@H]1O2	> 100 µM (inactive)
CO[C@H]1CC[C@H]2CCN(C)C(=O)CCCN(C)C(=O)c3cccc(C#N)c3OC[C@@H]1O2	> 100 µM (inactive)
CO[C@H]1CC[C@H]2CCN(C)C(=O)[C@@H](c3ccccc3)N(C)C(=O)c3cccc(C#N)c3OC[C@@H]1O2	> 100 µM (inactive)
